Data on 29 compounds can be found in patent US12540131B2 (Merck Sharp & Dohme LLC, priority 2019, dated 2026).

In one assay the target is GST tagged truncated human mutant G2019S LRRK2 (Homo sapiens (Human), UniProt Q5S007, G2019S). Nature of the assay: LRRK2 Km ATP LanthaScreen Assay. Particulars: G2019S LRRK2, 134 μM ATP (Km ATP), mean values. It is filed as biochemical. In outline: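 Enzyme (GST-tagged, truncated) was preincubated with compound for 15 min at RT in 50 mM Tris pH 8.5, 10 mM MgCl2, 0.01% Brij-35, 1 mM EGTA, 2 mM DTT and 0.05 mM orthovanadate. Fluorescein-LRRKtide and 134 μM ATP (Km) were then added for 90 min. EDTA and Tb-anti-pERM antibody stopped the reaction; the TR-FRET 520/495 ratio gave 4-parameter IC50s, reported as mean pIC50.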
Chain of GST tagged truncated human mutant G2019S LRRK2 (Q5S007 970-2527 G2019S): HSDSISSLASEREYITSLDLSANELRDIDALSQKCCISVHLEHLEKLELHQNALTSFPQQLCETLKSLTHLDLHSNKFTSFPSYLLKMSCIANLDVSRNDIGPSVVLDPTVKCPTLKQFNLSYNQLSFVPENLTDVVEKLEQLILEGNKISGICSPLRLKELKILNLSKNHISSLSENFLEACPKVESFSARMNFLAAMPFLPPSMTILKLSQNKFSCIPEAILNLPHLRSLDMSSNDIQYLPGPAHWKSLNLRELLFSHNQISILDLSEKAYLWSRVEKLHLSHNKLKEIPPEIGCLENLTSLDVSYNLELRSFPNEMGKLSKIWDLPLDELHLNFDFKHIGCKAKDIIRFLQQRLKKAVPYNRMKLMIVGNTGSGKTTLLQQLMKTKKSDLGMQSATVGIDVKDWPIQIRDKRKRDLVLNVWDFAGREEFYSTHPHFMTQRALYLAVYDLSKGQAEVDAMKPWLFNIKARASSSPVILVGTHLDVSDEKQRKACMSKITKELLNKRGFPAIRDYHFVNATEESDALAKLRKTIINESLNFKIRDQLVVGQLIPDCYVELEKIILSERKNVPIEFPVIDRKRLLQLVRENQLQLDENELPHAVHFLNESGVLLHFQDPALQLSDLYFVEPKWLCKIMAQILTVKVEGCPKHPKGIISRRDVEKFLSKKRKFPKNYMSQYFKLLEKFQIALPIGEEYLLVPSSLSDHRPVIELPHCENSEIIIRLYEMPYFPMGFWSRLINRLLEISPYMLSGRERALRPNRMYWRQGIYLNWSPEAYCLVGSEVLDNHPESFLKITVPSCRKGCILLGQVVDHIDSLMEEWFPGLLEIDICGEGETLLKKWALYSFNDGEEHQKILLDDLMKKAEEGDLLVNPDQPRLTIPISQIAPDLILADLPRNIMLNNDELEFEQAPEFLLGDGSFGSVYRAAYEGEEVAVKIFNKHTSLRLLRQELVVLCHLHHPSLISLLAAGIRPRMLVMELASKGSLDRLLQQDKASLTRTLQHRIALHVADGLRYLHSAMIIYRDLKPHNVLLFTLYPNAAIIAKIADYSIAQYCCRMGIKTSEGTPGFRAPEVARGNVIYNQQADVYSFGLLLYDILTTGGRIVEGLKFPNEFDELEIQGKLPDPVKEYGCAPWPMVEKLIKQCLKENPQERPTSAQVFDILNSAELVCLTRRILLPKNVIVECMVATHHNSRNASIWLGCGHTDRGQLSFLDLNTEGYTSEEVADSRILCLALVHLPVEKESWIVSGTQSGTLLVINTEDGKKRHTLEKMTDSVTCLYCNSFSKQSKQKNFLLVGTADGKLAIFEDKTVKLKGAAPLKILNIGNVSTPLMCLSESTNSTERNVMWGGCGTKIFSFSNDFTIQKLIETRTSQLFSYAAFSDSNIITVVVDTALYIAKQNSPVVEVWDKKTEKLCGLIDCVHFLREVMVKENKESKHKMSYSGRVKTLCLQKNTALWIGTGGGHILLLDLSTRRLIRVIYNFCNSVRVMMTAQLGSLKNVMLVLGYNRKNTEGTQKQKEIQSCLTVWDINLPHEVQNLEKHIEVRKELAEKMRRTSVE
As to `Cc1c(Nc2ncc3cc(Cl)c(C4CCN(C[C@@H](O)c5ccc(F)c(F)c5)CC4)cc3n2)cnn1C1CC1` [Ex-4.200, (1S)-2-(4-{6-chloro-2-[(1-cyclopropyl-5-methyl-1H-pyrazol-4-yl)amino]quinazolin-7-yl}piperidin-1-yl)-1-(3,4-difluorophenyl)ethan-1-ol], the “LRRK2 pIC50” value is 8.76. Regarding `Cc1c(Nc2ncc3cc(Cl)c(C4CCN(C[C@H](O)c5ccc(F)cc5F)CC4)cc3n2)cnn1C1CC1` [Ex-4.201, (1R)-2-(4-{6-chloro-2-[(1-cyclopropyl-5-methyl-1H-pyrazol-4-yl)amino]quinazolin-7-yl}piperidin-1-yl)-1-(2,4-difluorophenyl)ethan-1-ol], the “LRRK2 pIC50” value is listed as 8.19. For `Cc1c(Nc2ncc3cc(Cl)c(C4CCN(C[C@@H](O)c5ccccc5F)CC4)cc3n2)cnn1C1CC1` [Ex-4.202, (1S)-2-(4-{6-chloro-2-[(1-cyclopropyl-5-methyl-1H-pyrazol-4-yl)amino]quinazolin-7-yl}piperidin-1-yl)-1-(2-fluorophenyl)ethan-1-ol], the “LRRK2 pIC50” value worked out at 8.47. Still for that read-out and setting: with `Cc1c(Nc2ncc3cc(Cl)c(C4CCN(C[C@H](O)c5ccccc5F)CC4)cc3n2)cnn1C1CC1` [Ex-4.203, (1R)-2-(4-{6-chloro-2-[(1-cyclopropyl-5-methyl-1H-pyrazol-4-yl)amino]quinazolin-7-yl}piperidin-1-yl)-1-(2-fluorophenyl)ethan-1-ol] the figure was 8.03. The same measure, in the same setting: with `Cc1c(Nc2ncc3cc(Cl)c(C4CCN(C[C@H](O)c5cc(F)ccc5F)CC4)cc3n2)cnn1C1CC1` [Ex-4.204, (1R)-2-(4-{6-chloro-2-[(1-cyclopropyl-5-methyl-1H-pyrazol-4-yl)amino]quinazolin-7-yl}piperidin-1-yl)-1-(2,5-difluorophenyl)ethan-1-ol] the figure was 7.67.

With `Cc1c(Nc2ncc3cc(Cl)c(C4CCN(C[C@@H](O)c5cc(F)ccc5F)CC4)cc3n2)cnn1C1CC1` [Ex-4.205, (1S)-2-(4-{6-chloro-2-[(1-cyclopropyl-5-methyl-1H-pyrazol-4-yl)amino]quinazolin-7-yl}piperidin-1-yl)-1-(2,5-difluorophenyl)ethan-1-ol], the “LRRK2 pIC50” value amounted to 8.40. For `Cc1c(Nc2ncc3cc(Cl)c(C4CCN(C[C@H](O)c5cccc(F)c5F)CC4)cc3n2)cnn1C1CC1` [Ex-4.206, (1R)-2-(4-{6-chloro-2-[(1-cyclopropyl-5-methyl-1H-pyrazol-4-yl)amino]quinazolin-7-yl}piperidin-1-yl)-1-(2,3-difluorophenyl)ethan-1-ol], the “LRRK2 pIC50” value was determined as 7.90. As to `Cc1c(Nc2ncc3cc(Cl)c(C4CCN(C[C@@H](O)c5cccc(F)c5F)CC4)cc3n2)cnn1C1CC1` [Ex-4.207, (1S)-2-(4-{6-chloro-2-[(1-cyclopropyl-5-methyl-1H-pyrazol-4-yl)amino]quinazolin-7-yl}piperidin-1-yl)-1-(2,3-difluorophenyl)ethan-1-ol], the “LRRK2 pIC50” value turned out to be 8.31.

`Cc1c(Nc2ncc3cc(Cl)c(C4CCN(C[C@H](O)c5c(F)cccc5F)CC4)cc3n2)cnn1C1CC1` [Ex-4.208, (1R)-2-(4-{6-chloro-2-[(1-cyclopropyl-5-methyl-1H-pyrazol-4-yl)amino]quinazolin-7-yl}piperidin-1-yl)-1-(2,6-difluorophenyl)ethan-1-ol]: the “LRRK2 pIC50” value is 7.96. For `Cc1c(Nc2ncc3cc(Cl)c(C4CCN(C[C@@H](O)c5c(F)cccc5F)CC4)cc3n2)cnn1C1CC1` [Ex-4.209, (1S)-2-(4-{6-chloro-2-[(1-cyclopropyl-5-methyl-1H-pyrazol-4-yl)amino]quinazolin-7-yl}piperidin-1-yl)-1-(2,6-difluorophenyl)ethan-1-ol], the “LRRK2 pIC50” value is given as 8.16.

For `Cc1c(Nc2ncc3cc(Cl)c(C4CCN(CC5(O)CCOCC5)CC4)cc3n2)cnn1C1CC1` [Ex-4.210, 4-[(4-{6-chloro-2-[(1-cyclopropyl-5-methyl-1H-pyrazol-4-yl)amino]quinazolin-7-yl}piperidin-1-yl)methyl]oxan-4-ol], the “LRRK2 pIC50” value amounted to 8.55.

For `COC[C@H](O)CN1CCC(c2cc3nc(Nc4cnn(C5CC5)c4C)ncc3cc2Cl)CC1` [Ex-4.211, (2R)-1-(4-{6-chloro-2-[(1-cyclopropyl-5-methyl-1H-pyrazol-4-yl)amino]quinazolin-7-yl}piperidin-1-yl)-3-methoxypropan-2-ol], the “LRRK2 pIC50” value turned out to be 9.15. Same read-out and setting: with `COC[C@@H](O)CN1CCC(c2cc3nc(Nc4cnn(C5CC5)c4C)ncc3cc2Cl)CC1` [Ex-4.212, (2S)-1-(4-{6-chloro-2-[(1-cyclopropyl-5-methyl-1H-pyrazol-4-yl)amino]quinazolin-7-yl}piperidin-1-yl)-3-methoxypropan-2-ol] the figure was 8.75; with `Cc1c(Nc2ncc3cc(Cl)c(C4CCN(C[C@H](O)c5ccc(F)cc5)CC4)cc3n2)cnn1C1CC1` [Ex-4.213, (1R)-2-(4-{6-chloro-2-[(1-cyclopropyl-5-methyl-1H-pyrazol-4-yl)amino]quinazolin-7-yl}piperidin-1-yl)-1-(4-fluorophenyl)ethan-1-ol], 8.50. As for `Cc1c(Nc2ncc3cc(Cl)c(C4CCN(C[C@@H](O)c5ccc(F)cc5)CC4)cc3n2)cnn1C1CC1` [Ex-4.214, (1S)-2-(4-{6-chloro-2-[(1-cyclopropyl-5-methyl-1H-pyrazol-4-yl)amino]quinazolin-7-yl}piperidin-1-yl)-1-(4-fluorophenyl)ethan-1-ol], the “LRRK2 pIC50” value worked out at 8.62. `Cc1c(Nc2ncc3cc(Cl)c(C4CCN(CC5(O)CCC5)CC4)cc3n2)cnn1C1CC1` [Ex-4.215, 1-[(4-{6-chloro-2-[(1-cyclopropyl-5-methyl-1H-pyrazol-4-yl)amino]quinazolin-7-yl}piperidin-1-yl)methyl]cyclobutan-1-ol]: the “LRRK2 pIC50” value worked out at 8.57. As for `Cc1c(Nc2ncc3cc(Cl)c(C4CCN(C[C@H](O)CN5CCCC5=O)CC4)cc3n2)cnn1C1CC1` [Ex-4.216, 1-[(2S)-3-(4-{6-chloro-2-[(1-cyclopropyl-5-methyl-1H-pyrazol-4-yl)amino]quinazolin-7-yl}piperidin-1-yl)-2-hydroxypropyl]pyrrolidin-2-one], the “LRRK2 pIC50” value turned out to be 9.05. On the same count and under the same terms, the value for `Cc1c(Nc2ncc3cc(Cl)c(C4CCN(CC(C)(C)O)CC4)cc3n2)cnn1C1CC1` [Ex-4.217, 1-(4-{6-chloro-2-[(1-cyclopropyl-5-methyl-1H-pyrazol-4-yl)amino]quinazolin-7-yl}piperidin-1-yl)-2-methylpropan-2-ol] was 8.57; that for `Cc1c(Nc2ncc3cc(Cl)c(C4CCN(C[C@]5(O)C[C@H](C#N)C5)CC4)cc3n2)cnn1C1CC1` [Ex-4.229, trans-3-[(4-{6-chloro-2-[(1-cyclopropyl-5-methyl-1H-pyrazol-4-yl)amino]quinazolin-7-yl}piperidin-1-yl)methyl]-3-hydroxycyclobutane-1-carbonitrile] was 8.95; that for `Cc1cc2cnc(Nc3cnn(C4(C)CC4)c3Cl)nc2cc1C1CCN(CCC#N)CC1` [Ex-5.2, 3-(4-(2-((5-chloro-1-(1-methylcyclopropyl)-1H-pyrazol-4-yl)amino)-6-methylquinazolin-7-yl)piperidin-1-yl)propanenitrile] was above 9.20. The same measure, in the same setting: with `Cc1cc2cnc(Nc3cnn(C45CC(C4)C5)c3C)nc2cc1C1CCN(C2(C)COC2)CC1` [Ex-5.8, N-[1-(bicyclo[1.1.1]pentan-1-yl)-5-methyl-1H-pyrazol-4-yl]-6-methyl-7-[1-(3-methyloxetan-3-yl)piperidin-4-yl]quinazolin-2-amine] the figure was above 9.20; with `N#Cc1cc2cnc(Nc3cnn(C4CC4)c3Cl)nc2cc1C1CCN(C2COC2)CC1` [Ex-6.3, 2-((5-chloro-1-cyclopropyl-1H-pyrazol-4-yl)amino)-7-(1-(oxetan-3-yl)piperidin-4-yl)quinazoline-6-carbonitrile], 9.07; with `FC1COCC1N1CC[C@@H](c2cc3nc(Nc4cnn(C5CC5(F)F)c4Cl)ncc3cc2Cl)C(F)C1` (some centres unmarked) [Ex-7.1], 9.01. On to `FC1COCC1N1CC[C@H](c2cc3nc(Nc4cnn(C5CC5(F)F)c4Cl)ncc3cc2Cl)C(F)C1` (some centres unmarked) [Ex-7.2], for which the “LRRK2 pIC50” value is on record as above 9.20. On to `FC(F)(F)Cn1ncc(Nc2ncc3cc(Cl)c(C4CCN(C5COC5)CC4)cc3n2)c1Cl` [Ex-8.1, 6-chloro-N-(5-chloro-1-(2,2,2-trifluoroethyl)-1H-pyrazol-4-yl)-7-(1-(oxetan-3-yl)piperidin-4-yl)quinazolin-2-amine], for which the “LRRK2 pIC50” value is above 9.20. As for `FC(F)n1ncc(Nc2ncc3cc(Cl)c(C4CCN(C5COC5)CC4)cc3n2)c1Cl` [Ex-8.2, 6-chloro-N-[5-chloro-1-(difluoromethyl)-1H-pyrazol-4-yl]-7-[1-(oxetan-3-yl)piperidin-4-yl]quinazolin-2-amine], the “LRRK2 pIC50” value amounted to 8.83. For the compound `Cc1nsc(Nc2ncc3cc(Cl)c(C4CCN(C5COC5)CC4)cc3n2)c1Cl` [Ex-8.5, 6-chloro-N-(4-chloro-3-methyl-1,2-thiazol-5-yl)-7-[1-(oxetan-3-yl)piperidin-4-yl]quinazolin-2-amine], the “LRRK2 pIC50” value is listed as above 9.20.

Take `N#CCCN1CCC(c2cc3nc(Nc4cnn(C5CC5)c4Cl)ncc3cc2Cl)CC1` [Ex-8.6, 3-(4-{6-chloro-2-[(5-chloro-1-cyclopropyl-1H-pyrazol-4-yl)amino]quinazolin-7-yl}piperidin-1-yl)propanenitrile]: the “LRRK2 pIC50” value is on record as 8.17.

Still in this assay, the particulars now being: G2019S LRRK2, 134 μM ATP (Km ATP), mean values; read-out: LRRK2 pIC50 (converted).
As for `Cc1cc2cnc(Nc3cnn(C4(C)CC4)c3C)nc2cc1C1CCN(CCC#N)CC1` [Ex-5.1, 3-(4-(6-methyl-2-((5-methyl-1-(1-methylcyclopropyl)-1H-pyrazol4-yl)amino)quinazolin-7-yl)piperidin-1-yl)propanenitrile], the IC50 was below 0.631 nM.
